Reference: publication PMC10900488, “Synthesis and Evaluation of (Bis)benzyltetrahydroisoquinoline Alkaloids as Antiparasitic Agents” (JACS Au, 2024)

How the values were obtained:
[1] = system: L. infantum promastigotes; test: Antipromastigote assay (L. infantum), MTT colorimetric; format: cell-based, Leishmania (L.) infantum; details: Leishmania infantum; ± SD; MTT, 48 h; read-out: L. infantum IC50 promastigotes
Procedure: Table 1 depicts the antileishmanial (L. infantum) activity evaluation performed against both the amastigote form (evaluated microscopically using an ex vivo intracellular model of mice macrophages) and the promastigote one (using an MTT colorimetric method).[32],[33] The cytotoxicity was evaluated against NCTC cells using an MTT colorimetric method and the selectivity index was determined using the ratio between the CC50 values (NCTC cells) and the IC50 values (amastigotes).[32] […] With respect to the substituents on the C ring, larger, hydrophobic groups conferred greater bioactivity (e.g., 9b–d), whereas small, hydrophilic groups such as a hydroxyl group afford modest to poor bioactivity.
Leishmania (L.) infantum (MHOM/BR/1972/LD) amastigotes were obtained from golden hamsters (Mesocricetus auratus) spleens following 60-70 days of infection via differential centrifugation. The Stauber method was used to determine the number of parasites.12 […]
Biological activity assays
Antipromastigote Assay (L. infantum)
L. infantum promastigotes (1 × 10^6 cells/well) were added to a 96-well plates. Treatment of the cells with selected compounds (serially diluted 0.14 to 200 μM) was performed in M199 medium supplemented with 0.25% hemin and 10% fetal bovine serum for 48 h at 24 °C. The MTT colorimetric assay was used to determine the activity (IC50) of the compounds. Miltefosine was used as a standard drug and untreated promastigotes were used as a negative control. The half inhibitory concentration (IC50) was determined from a sigmoidal regression of the concentration-response curves generated in GraphPadPrism7. […]

[2] = system: L. mexicana promastigotes; test: Cell cycle studies (K/N counts); format: cell-based, Leishmania (L.) mexicana; details: 50 μM, 6 and 24 h
Procedure: To investigate whether the morphological changes are a consequence of cell cycle interference, we analyzed the cell cycle over a 24 h period. Untreated L. mexicana promastigotes typically have a doubling time of 7.1 h, with each of the DNA-containing organelles replicating once in the order […], before cytokinesis, leading to two daughter cells.[37],[38] […] Cells treated with (S)-9a at 50 μM were studied after 6 and 24 h of treatment, and found to deviate from the typical cell cycle, giving rise to abnormal categories of cells with incorrectly replicated organelles (Figure 2C). For around 15% of the cells in 1K1N there was the presence of an eXtra structure (1K1N1X) that could not be clearly assigned as K or N, generally toward the posterior end of the cell body.
(§1) NCTC cells (6 × 10^4/well) were added to a 96-well plate. Treatments of the cells with selected compounds (serially diluted 1.5 to 200 μM) was performed in a humidified incubator for 96 h at 37 °C and with 5% CO2.
(§2) The MTT colorimetric method was used to determine the 50% cytotoxic concentration (CC50) and the selectivity index (CC50 against NCTC cells/IC50 against amastigotes).15 […]
(§3) […] […] Statistical significance was derived from a two-tailed T-test.
(§4) The Graph Pad Prism 5 software was used to perform sigmoid dose-response curves for the determination of […]

mNG::RAD51 promastigotes = test: mNG::RAD51 nuclear foci studies; format: cell-based, Leishmania (L.) mexicana; details: 50 μM, up to 24 h
Excerpt: DSBs often lead to cytotoxicity, which could be an explanation for the observed compound activity.[44]−[46]Leishmania employ the RAD51 DNA recombinase protein as part of its DNA repair machinery to fix naturally occurring nuclear DSBs via homologous recombination.[47]−[50] Using a CRISPR/Cas9 gene editing strategy,[51] we generated a genetically modified cell line with mNeonGreen tagged RAD51. This would allow observation of fluorescent RAD51 protein recruitment to foci in the nucleus corresponding to DSB accumulation, as has been shown in T. brucei.[52],[53] Phleomycin was used as a positive control to induce DSBs,[54] which led to the expected observation of accumulation of RAD51 as green dots in the nucleus in 80% of cells from as early as 2 h posttreatment (Figure 2D). […] We can therefore conclude that the BI compounds tested are unlikely to act via DSBs (albeit this methodology is sensitive only to DSBs in nuclear DNA), and another mechanism of cell cycle disruption is responsible for the breakdown in the healthy cell cycle.
as §1, §2, §3, §4
[…] At 6 h and 24 h post-treatment, a 1 mL aliquot was taken for imaging. The cell cycle experiment was preformed twice independently.
Generation of mNG::RAD51 tagged cell line
The single-stranded DNA-binding protein RAD51, associated with DNA Repair, LmxM.28.0550 was tagged with endogenous fluorescent protein mNeonGreen (mNG) at the N-terminus. […]
Primers for constructs and sgRNA were designed using LeishGEdit (http://www.leishGEdit.net). […]

Row | SMILES | IC50 [1] [µM] | cells in 1K1N with an extra structure (1K1N1X) [2] | proportion of cells in the dividing stages (Non-1K1N) ([2]; versus the expected 10%) | RAD51 nuclear foci (mNG::RAD51 promastigotes)
1 | COc1cc2c(cc1OC)[C@H](Cc1ccc(Br)cc1)N(C)CC2 [(S)-9a] | 18.4 ± 2.1 | around 15% | doubled | no RAD51 nuclear foci
2 | COc1cc2c(cc1OC)[C@H](Cc1ccc(OC)c(OCc3ccccc3)c1)N(C)CC2 [(S)-9b] | 8.6 ± 0.8 | – | – | no RAD51 nuclear foci
3 | COc1cc2c(cc1OC)[C@@H](Cc1ccc(Oc3cc(C[C@H]4c5cc(OC)c(OC)cc5CCN4C)ccc3OC)cc1)N(C)CC2 [(S,R)-11, (−)-O,O′-dimethylgrisabine] | 0.8 ± 0.01 | – | – | –
